Here are results for 20 compounds from patent publication US20230295087A1, “AGONISTS OF ROR GAMMAt” (BRISTOL-MYERS SQUIBB COMPANY, priority 2019, published 2023).

A word on the EC50: it is the concentration giving half of the maximal effect. A lower EC50 goes with greater potency.

This experiment concerns the target T1, human RORgT (Homo sapiens, UniProt P51449).
T1 construct: expressed in transfected cells
T1 sequence (P51449 267-516): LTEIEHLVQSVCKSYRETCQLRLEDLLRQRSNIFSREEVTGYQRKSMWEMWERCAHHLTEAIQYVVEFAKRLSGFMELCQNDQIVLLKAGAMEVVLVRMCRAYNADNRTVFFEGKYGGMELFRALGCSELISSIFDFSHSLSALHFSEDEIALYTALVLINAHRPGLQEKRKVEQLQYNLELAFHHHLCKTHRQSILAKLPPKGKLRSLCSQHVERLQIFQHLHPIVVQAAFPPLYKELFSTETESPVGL
Put plainly: RORgT Gal4 Luciferase Reporter Gene Assay. Format: cell-based. To be noted: engineered Jurkat cells overexpressing RORgT (LBD or full length) fused with Gal4 Luc reporter; 18 hours at 37° C.; luminescence. The protocol:
RORgT Gal4 Luciferase Reporter Gene Assay
25 µL of cryopreserved Jurkat cells over expressing ligand binding domain (LBD) of RORgT (aa267-516, NM_005060) and Gal4 Luc, or full length of human RORgT and Gal4 Luc, were plated in 384-well solid white cell culture plates (PerkinElmer 6007899), with a density of 10,000 cells/well in RPMI 1640 cell culture media (Gibco 11875-085). The media contained 0.1% BSA, 10 mM HEPES (Gibco 15360-080), […] Sodium Pyruvate (Gibco 11360-040), […] Hygromycin B (Invitrogen 10687-010), and […] Blasticidin (Invitrogen R210-01).
100 nL of compound at varying concentrations in 3-fold serial dilution, with final concentrations ranging from 40 µM to 0.67 nM, were added to the cells using Labcyte Echo 550. The compound and the cells were incubated for 18 hours at 37° C. in a cell culture incubator. Cells were then lysed with 15 uL of Steady-Glo Luciferase Assay reagent (Promega EZ550), followed by centrifuging the assay plates at 1500 RPM for 1 minute. Subsequently, the plates were read on the Envision (PerkinElmer). The inhibition of constitutive activity of RORgT achieved by graded concentrations of compound was calculated as a percentage of the luminescence signal window reduction over a control compound.
A general note: A reporter such as luciferase makes a cellular process visible.
As for `CC(=O)NC1CC2(C1)CC(C(=O)N1CC[C@@]3(S(=O)(=O)c4ccccc4)c4ccc(OCc5c(Cl)cccc5Cl)cc4CC[C@@H]13)C2` (stereo partly drawn) [Example 67, N-{6-[(3aR,9bR)-9b-(benzenesulfonyl)-7-[(2,6-dichlorophenyl)methoxy]-1H,2H,3H,3aH,4H,5H,9bH-benzo[e]indole-3-carbonyl]spiro[3.3]heptan-2-yl}acetamide], the EC50 is 0.416 µM.

`N#CCCN1C(=O)CC[C@H]1C(=O)N1CC[C@@]2(S(=O)(=O)c3ccc(F)cc3)c3ccc(OCc4cc(Cl)ccc4Cl)cc3CC[C@@H]12` [Example 157, 3-[(2S)-2-[(3aR,9bR)-7-[(2,5-dichlorophenyl)methoxy]-9b-(4-fluorobenzenesulfonyl)-1H,2H,3H,3aH,4H,5H,9bH-benzo[e]indole-3-carbonyl]-5-oxopyrrolidin-l-yl]propanenitrile] registered an EC50 of 0.0043 µM.

In turn, `CC1(C(=O)N2CC[C@@]3(S(=O)(=O)c4ccc(F)cc4)c4ccc(OCc5c(F)cccc5C(F)(F)F)cc4CC[C@@H]23)CCS(=O)(=O)CC1` [Example 19] yielded an EC50 of 0.014 µM. In turn, `O=C(C1CCS(=O)(=O)CC1)N1CC[C@@]2(S(=O)(=O)c3ccc(F)cc3)c3ccc(OCc4c(F)cccc4Cl)cc3CC[C@@H]12` [Example 166, 4-[(3aR,9bR)-7-[(2-chloro-6-fluorophenyl)methoxy]-9b-(4-fluorobenzenesulfonyl)-1H,2H,3H,3aH,4H,5H,9bH-benzo[e]indole-3-carbonyl]-1λ^6-thiane-1,1-dione] registered an EC50 of 0.0078 µM. With `O=C(O)[C@H]1CC[C@](O)(C(=O)N2CC[C@@]3(S(=O)(=O)c4ccc(F)cc4)c4ccc(OCc5c(F)cccc5Cl)cc4CC[C@@H]23)CC1` [Example 23, (1s,4s)-4-[(3aR,9bR)-7-[(2-chloro-6-fluorophenyl)methoxy]-9b-(4-fluorobenzenesulfonyl)-1H,2H,3H,3aH,4H,5H,9bH-benzo[e]indole-3-carbonyl]-4-hydroxycyclohexane-1-carboxylic acid] the figure was 0.055 µM; with `NC(=O)N1CCC(C(=O)N2CC[C@@]3(S(=O)(=O)c4ccc(F)cc4)c4ccc(OCc5ccc(F)cc5Cl)cc4CC[C@@H]23)CC1` [Example 198, 4-[(3aR,9bR)-7-[(2-chloro-4-fluorophenyl)methoxy]-9b-(4-fluorobenzenesulfonyl)-1H,2H,3H,3aH,4H,5H,9bH-benzo[e]indole-3-carbonyl] piperidine-1-carboxamide], 0.019 µM. In the case of `O=C(O)[C@H]1CC[C@](O)(C(=O)N2CC[C@@]3(S(=O)(=O)c4ccc(F)cc4)c4ccc(OCc5c(F)cccc5C(F)(F)F)cc4CC[C@@H]23)CC1` [Example 27, (1 s,4 s)-4-[(3aR,9bR)-7-{ [2-fluoro-6-(trifluoromethyl)phenyl]methoxy} -9b-(4-fluorobenzenesulfonyl)-1H,2H,3H,3aH,4H,5H,9bH-benzo[e]indole-3-carbonyl] -4-hydroxycyclohexane-1-carboxylic acid], the EC50 was 0.099 µM.

On to `O=C(C1CCS(=O)(=O)CC1)N1CC[C@@]2(S(=O)(=O)c3ccc(F)cc3)c3ccc(Oc4c(F)cccc4Cl)cc3CC[C@@H]12` [Example 38, 4-[(3aR,9bR)-7-(2-chloro-6-fluorophenoxy)-9b-(4-fluorobenzenesulfonyl)-1H,2H,3H,3aH,4H,5H,9bH-benzo[e]indole-3-carbonyl]-1λ^6-thiane-1,1-dione], for which the EC50 is 0.0011 µM.

Turning to `NS(=O)(=O)CC(=O)N1CC[C@@]2(S(=O)(=O)c3ccccc3)c3ccc(OCc4c(F)cccc4Cl)cc3CC[C@@H]12` [Example 148, 2-[(3aR,9bR)-9b-(benzenesulfonyl)-7-[(2-chloro-6-fluorophenyl)methoxy]-1H,2H,3H,3aH,4H,5H,9bH-benzo[e]indol-3-yl]-2-oxoethane-1-sulfonamide], the EC50 stood at 0.119 µM. Compound `O=C(C1CCS(=O)(=O)CC1)N1CC[C@@]2(S(=O)(=O)c3ccc(F)cc3)c3ccc(OCc4cc(F)ccc4Cl)cc3CC[C@@H]12` [Example 181, 4-[(3aR,9bR)-7-[(2-chloro-5-fluorophenyl)methoxy]-9b-(4-fluorobenzenesulfonyl)-1H,2H,3H,3aH,4H,5H,9bH-benzo[e]indole-3-carbonyl]-1λ^6-thiane-1,1-dione] registered an EC50 of 0.0088 µM. Compound `C[C@]1(C(=O)N2CC[C@@]3(S(=O)(=O)c4ccc(F)cc4)c4ccc(OCc5cc(Cl)ccc5Cl)cc4CC[C@@H]23)CC[C@H](C(=O)O)CC1` [Example 113, (1r,4r)-4-[(3aR,9bR)-7-[(2,5-dichlorophenyl)methoxy]-9b-(4-fluorobenzenesulfonyl)-1H,2H,3H,3aH,4H,5H,9bH-benzo[e]indole-3-carbonyl]-4-methylcyclohexane-1-carboxylic acid] displayed an EC50 of 0.0031 µM. With `CC1(C(=O)N2CC[C@@]3(S(=O)(=O)c4ccc(F)cc4)c4ccc(OCc5c(F)cccc5Cl)cc4CC[C@@H]23)CCS(=O)(=O)CC1` [Example 7, ((3aR,9bR)-7-((2-chloro-6-fluorobenzyl)oxy)-9b-((4-fluorophenyl)sulfonyl)-4,5-dihydro-1H-benzo[e]indol-3(2H,3aH,9bH)-yl)(4-methyl-1,1-dioxidotetrahydro-2H-thiopyran-4-yl)methanone] the figure was 0.022 µM; with `O=C(CN1CCS(=O)(=O)CC1)N1CC[C@@]2(S(=O)(=O)c3ccccc3)c3ccc(OCc4c(Cl)cccc4Cl)cc3CC[C@@H]12` [Example 74, 4-{2-[(3aR,9bR)-9b-(benzenesulfonyl)-7-[(2,6-dichlorophenyl)methoxy]-1H,2H,3H,3aH,4H,5H,9bH-benzo[e]indol-3-yl]-2-oxoethyl}-1λ^6-thiomorpholine-1,1-dione], 0.014 µM. Consider `O=C(C1CCS(=O)(=O)CC1)N1CC[C@@]2(S(=O)(=O)c3ccc(F)cc3)c3ccc(OCc4cc(F)c(F)cc4Cl)cc3CC[C@@H]12` [Example 152, 4-[(3aR,9bR)-7-[(2-chloro-4,5-difluorophenyl)methoxy]-9b-(4-fluorobenzenesulfonyl)-1H,2H,3H,3aH,4H,5H,9bH-benzo[e]indole-3-carbonyl]-1λ^6-thiane-1,1-dione], for which the midpoint of the response, the EC50, lay at 0.015 µM. With `O=C(O)[C@H]1CC[C@H](C(=O)N2CC[C@@]3(S(=O)(=O)c4ccc(F)cc4)c4ccc(OCc5ccc(F)cc5Cl)cc4CC[C@@H]23)CC1` [Example 193, (1r,4r)-4-[(3aR,9bR)-7-[(2-chloro-4-fluorophenyl)methoxy]-9b-(4-fluorobenzenesulfonyl)-1H,2H,3H,3aH,4H,5H,9bH-benzo[e]indole-3-carbonyl]cyclohexane-1-carboxylic acid] the figure was 0.046 µM. The same measure for `O=C(O)[C@H]1CC[C@H](C(=O)N2CC[C@@]3(S(=O)(=O)c4ccc(F)cc4)c4ccc(CCc5c(Cl)cccc5Cl)cc4CC[C@@H]23)CC1` [Example 2, (1r,4r)-4-[(3aR,9bR)-7-[2-(2,6-dichlorophenyl)ethyl]-9b-(4-fluorobenzenesulfonyl)-1H,2H,3H,3aH,4H,5H,9bH-benzo[e]indole-3-carbonyl]cyclohexane-1-carboxylic acid]: 0.0068 µM; for `CC(=O)N1CCC(C(=O)N2CC[C@@]3(S(=O)(=O)c4ccc(F)cc4)c4ccc(OCc5c(F)cc(F)cc5Cl)cc4CC[C@@H]23)CC1` [Example 214, 1-{4-[(3aR,9bR)-7-[(2-chloro-4,6-difluorophenyl)methoxy]-9b-(4-fluorobenzenesulfonyl)-1H,2H,3H,3aH,4H,5H,9bH-benzo[e]indole-3-carbonyl]piperidin-1-yl}ethan-1-one]: 0.0053 µM.

Compound `CS(=O)(=O)N1CC(C(=O)N2CC[C@@]3(S(=O)(=O)c4ccccc4)c4ccc(OCc5c(Cl)cccc5Cl)cc4CC[C@@H]23)C1` [Example 98, 3-[(3aR,9bR)-9b-(benzenesulfonyl)-7-[(2,6-dichlorophenyl)methoxy]-1H,2H,3H,3aH,4H,5H,9bH-benzo[e]indole-3-carbonyl]-1-methanesulfonylazetidine] showed an EC50 of 0.019 µM. As for `O=C(C1CCC(B(O)O)CC1)N1CC[C@@]2(S(=O)(=O)c3ccc(F)cc3)c3ccc(OCc4c(F)cccc4C(F)(F)F)cc3CC[C@@H]12` (stereo partly drawn) [Example 14, (4-((3aR,9bR)-7-((2-fluoro-6-(trifluoromethyl)benzyl)oxy)-9b-((4-fluorophenyl)sulfonyl)-2,3,3a,4,5,9b-hexahydro-1H-benzo[e]indole-3-carbonyl)cyclohexyl)boronic acid], the EC50 was 0.0018 µM. As to `NC(=O)N1CCC(C(=O)N2CC[C@@]3(S(=O)(=O)c4ccc(F)cc4)c4ccc(CCc5c(Cl)cccc5Cl)cc4CC[C@@H]23)CC1` [Example 162, 4-[(3aR,9bR)-7-[2-(2,6-dichlorophenyl)ethyl]-9b-(4-fluorobenzenesulfonyl)-1H,2H,3H,3aH,4H5H,9bH-benzo[e]indole-3-carbonyl]piperidine-1-carboxamide], a half-maximal response (EC50) required 0.0081 µM.
